Assay: molar heat capacity at constant pressure
Settings: 101.33 kPa, Vacuum adiabatic calorimetry

CCCCn1cc[n+](C)c1.[I-] [1-butyl-3-methylimidazolium iodide]
molar heat capacity at constant pressure [J/K/mol]
Settings | Crystal | Glass
79.03 K | – | 108.5
80 K | 101 | 109.4
80.72 K | – | 110.2
80.99 K | 102 | –
81.32 K | 102.2 | –
81.39 K | – | 110.6
82.53 K | – | 111.7
82.87 K | 103.5 | –
83.68 K | 104.1 | –
83.75 K | – | 112.7
84.35 K | – | 113.3
84.75 K | 105 | –
86.18 K | – | 114.8
86.65 K | 106.5 | –
88.03 K | – | 116.3
88.56 K | 108 | –
89.88 K | – | 117.8
90 K | 109.2 | 117.9
90.48 K | 109.5 | –
91.74 K | – | 119.3
92.41 K | 110.9 | –
93.62 K | – | 120.8
94.34 K | 112.5 | –
95.5 K | – | 122.3
96.29 K | 113.9 | –
97.39 K | – | 123.7
98.25 K | 115.3 | –
99.29 K | – | 125.2
100 K | 116.6 | 125.7
100.21 K | 116.7 | –
101.2 K | – | 126.6
102.18 K | 118.2 | –
103.12 K | – | 128
104.16 K | 119.5 | –
105.04 K | – | 129.4
106.14 K | 120.9 | –
106.97 K | – | 130.8
107.31 K | 121.7 | –
108.13 K | 122.3 | –
108.91 K | – | 132.2
109.45 K | 123.1 | –
110 K | 123.5 | 132.9
110.13 K | 123.6 | –
110.85 K | – | 133.5
111.45 K | 124.4 | –
112.13 K | 124.9 | –
112.8 K | – | 134.9
113.46 K | 125.7 | –
114.14 K | 126.3 | –
114.75 K | – | 136.2
115.47 K | 127.1 | –
116.16 K | 127.5 | –
116.71 K | – | 137.6
117.49 K | 128.4 | –
118.17 K | 128.8 | –
118.68 K | – | 138.9
119.51 K | 129.7 | –
120 K | 130 | 139.8
120.2 K | 130.1 | –
120.64 K | – | 140.2
121.54 K | 130.9 | –
122.22 K | 131.4 | –
122.62 K | – | 141.5
123.57 K | 132.2 | –
124.25 K | 132.7 | –
124.59 K | – | 142.8

From the NIST ThermoML archive (doi:10.1016/j.jct.2014.07.018)
